According to patent US7635675B2, “Micro-particle fatty acid salt solid dosage formulations for therapeutic agents” (Biocon Limited, priority 2003, dated 2009):

Assay: USP dissolution test of fatty acid salts released from tablets and capsules
Format: physicochemical
Conditions: tablet formulations where the fatty acids have been milled to optimum particle size (FIGS. 3-8); USP apparatus 2, 50 rpm, 500 mL pH 7.4 phosphate buffer
Protocol: The formulations of the invention preferably have a high dissolution rate. The dissolution rate can be determined as follows: Use USP dissolution apparatus 2 (paddles) at 50 rpm with 500 mL of pH 7.4 phosphate buffer.
USP 26, <711> DISSOLUTION Test Description:
This test is provided to determine compliance with the dissolution requirements where stated in the individual monograph for a tablet or capsule dosage form. Of the types of apparatus described therein, use apparatus 2. […] Where water or a medium with a pH of less than 6.8 is specified as the Medium in the individual monograph, the same Medium specified may be used with the addition of purified pepsin that results in an activity of 750,000 Units or less per 1000 mL. For media with a pH of 6.8 or greater, pancreatin can be added to produce not more than 1750 USP Units of protease activity per 1000 mL. USP Reference Standards <11> (Dissolution Calibrator, Disintegrating). (Dissolution Calibrator, nondisintegrating) are used to calibrate the equipment.
Apparatus 2: The assembly consists of the following: a covered vessel made of glass or other inert, transparent material; a motor; a metallic drive shaft; and a stirring element. The vessel is partially immersed in a suitable water bath of any convenient size or placed in a heating jacket. […]

SMILES | dissolution (release) of fatty acid salt from tablet formulations
CCCCCCCCCC(=O)[O-].[Na+] [capric acid sodium salt] | readily released
CCCCCCCCCCCC(=O)[O-].[Na+] [lauric acid sodium salt] | readily released
